Experiments:
[1] = Body weight of CMT rats during treatment; assay type: in vivo, rat; details: treated group comparatively with placebo group, data not shown
Protocol: The animals are weighted twice a week in order to adjust the doses to growing body weight. If the osmotic pump is chosen for the treatment administration, the doses of the drug are calculated on the basis of the estimated mean body weight of the animals expected for their age over the period of the pump duration (6 weeks). The pumps are re-implanted if necessary, with the appropriated anaesthesia protocol.
Body weights, overt signs (coat appearance, body posture, tremor) of the animals are monitored throughout the experiment. The rating scale is used for recording: 0=normal, 1=abnormal.

[2] = test system: CMT transgenic rat model (PMP22 transgenic rats); experiment: Electrophysiology: sensitive nerve potential amplitude (SNAP) in CMT rats; assay type: in vivo; details: CMT TG rats treated 20 weeks vs TG placebo
Protocol: When appropriate, the rats are subjected to electrophysiological evaluation: the sensitive nerve conduction velocity as well as latencies and potential amplitude are measured.
NCV measurement and potential acquisition (subcutaneous) were performed with the help of the chain composed of an amplificator (AM System 1700 and/or EMG-UTC), a stimulator (Havard apparatus 223) and a computer equipped with an acquisition card and a software for acquisition (SPATOL) and for the signal treatment (CALVISE).
Animals were anesthetized using ketamine/xalazine and maintained on the thermostated plate at 37° C. throughout the test (anaesthetics were supplemented as needed). Stimulating silver needle electrodes were inserted in the proximal part of the tail. The recording electrode was inserted subcutaneously through about 1 mm of skin in the distal part of the tail (4 and 6 cm from the stimulating electrode). Constant-current square-wave stimuli, […] in duration, were administered at a frequency of 0.3 per second. Responses, amplified 5.000-20.000, were visualized and collected on a computer based data acquisition system. Latencies were measured at each wave onset (defined as the first clearly identifiable deflection from the baseline). Peak to peak amplitudes of the largest deflections were calculated to determine maximum amplitude. For each recording, measurements were performed on the averaged responses to at least ten identical stimuli.
Sensory related conduction velocity (SNCV) was calculated by division of the distance between the stimulating cathodes by the difference between the correspondent latencies obtained from the two sites of stimulation.

[3] = test system: PMP22 protein; experiment: PMP22 protein expression analysis by flow cytometry (FACS) in primary rat Schwann cells; assay type: cell-based; details: 1 μM
Protocol: One day later, primary Schwann cells are stimulated by drugs during 24 hrs (3 wells/condition). The preparation of each compound is performed just prior to its addition to the cell culture medium. The following PCR conditions are used: Denaturation 5 min at 95° C. followed by 10 sec at 95° C., 40 sec at 60° C. and 10 sec at 72° C. and 1 min at 40° C. (Forty amplification cycles). The relative levels of PMP22 gene expression are measured following the Ct method comparing the quantity of products generated from the target gene PMP22 and the […] 8 hrs, 24 hrs and 48 hrs after drugs incubation, supernatants of primary rat Schwann cells are recovered, centrifuged and frozen. SC are detached with trypsin-EDTA. As soon as the majority of cells are in suspension, the trypsin is neutralised using DMEM with 10% FCS. Supernatants with cells are recovered and centrifuged. […] Forward Scatter (FSC) correlated with cell volume (size) and Side Scatter (SSC) depending on inner complexity of cells (granularity) are analysed. For expression of PMP22, analysis is performed within the total cells and percent of positive cells is calculated. Positive cells are cells with fluorescence intensity higher than the control with secondary antibody.

Cn1cc[nH]c1=S [methimazole, 1-methyl-3H-imidazole-2-thione]
entire body weight [1]: rather diminished | SNAP (sensitive nerve potential amplitude), distal portion of the tail [2]: significantly improved

CC[C@@H]1C(=O)OC[C@@H]1Cc1cncn1C [pilocarpine, (3S,4R)-3-ethyl-4-[(3-methylimidazol-4-yl)methyl]oxolan-2-one]
decrease of PMP22 protein level of expression ([3]; 24 hrs of incubation): 38% | change of PMP22 protein level of expression ([3]; 48 hrs of incubation, p<0.001): −18% | SNAP (sensitive nerve potential amplitude), distal portion of the tail [2]: failed to reach statistical significance | SNAP (sensitive nerve potential amplitude), distal portion of the tail ([2]; listed as compound B): approaching the nominal 5% threshold for significance
